Test results reported in patent US20060025458A1, “Alkylammonium compounds as antifungal and antitrypanosomal agents” (University of Connecticut, priority 2004, published 2006).

Assays:
[1] = test system: S. cerevisiae wild type and knockouts of PtdCho biosynthesis genes; assay: Plate growth limiting dilution assay of yeast phospholipid mutants with G25; type: cell-based, Saccharomyces cerevisiae; conditions: 5 μM G25, plate assay
Experimental: FIG. 9. Sensitivity to G25 of wild type and mutants affected in different steps of PtdCho biosynthesis. Plate growth limiting dilution assays were performed as described in Materials and Methods in the absence or the presence of 5 μM of G25. The strains and genes deleted in the strains used are described in “Material and Methods”.
(§1) Strains and Growth Conditions: Wild-type (BY4741: Mata his3Δ1 leu2Δ0 met15Δ0 ura3Δ0) and mutant (hnm1Δ, psd1Δ, cki1Δ, pem1Δ, ept1Δ, cpt1Δ, eki1Δ, psd2Δ, pct1Δ, ect1Δ, pem2Δ) S. cerevisiae strains used in this study were purchased from Research Genetics (Invitrogen, USA). These strains were grown on YPD (1% yeast extract, 2% dextrose and 2% peptone) or synthetic complete medium (SD, 1.7% yeast nitrogen base, 5% ammonium sulfate and 2% dextrose). The Nigerian strain of P. falciparum was propagated in human red blood cells at 4% hematocrit by the method of Trager and Jensen (1976). Plate growth assays were performed by growing wild-type and mutant yeast strains in YPD to mid-log phase. Cultures were serially diluted 1:10 starting with a density of 3×10^7 cells/ml. The growth of cells was monitored by spotting 3 μl of each dilution onto solid medium in the absence or presence of 5 μM of G25.
Sensitivity of mutants affected in phospholipid metabolism to choline analogs. […] However, the steps in the phospholipid biosynthesis pathways that are specifically targeted by these compounds are not yet known. To assess whether the mode of action of G25 is linked to disruption of phospholipid metabolism, yeast was used as a surrogate system to compare the sensitivity to G25 of the wild-type strain and eleven individual knockouts in the CDP-choline, CDP-ethanolamine and CDP-DAG pathways. […] No resistance was conferred by loss of the PtdEtn methyltransferases, Pem1 and Pem2, or the enzymes of the CDP-ethanolamine pathway. Furthermore, unlike psd1[…] strain, loss of the Golgi/vacuole PtdSer decarboxylase, Psd2, which synthesizes 5% of the PtdEtn pool only, had no effect on G25 sensitivity.

[2] = test system: de novo CDP-choline pathway (PtdCho synthesis from choline); assay: Incorporation of labeled choline into PtdCho in P. falciparum-infected erythrocytes; type: cell-based, Plasmodium falciparum
Experimental: FIG. 10A. […] 5-6×10^7 synchronized P. falciparum-infected erythrocytes (7% trophozoite stage) were pre-incubated at 4% haematocrit for 1 h in RPMI-based medium containing the indicated concentration of G25 before adding 30 μM [methyl-^3H]-choline (334 mCi/mmol). After incubation at 37° C. for 3 h, the cellular lipids were extracted and fractionated on TLC plates for quantification of radioactivity in PtdCho (black squares).
(§2) Labeling Studies and Phospholipid Analysis in P. falciparum: Nigerian strains of P. falciparum were asexually cultured in the presence of basic medium (RPMI 1640 supplemented with 25 mM Hepes, pH 7.4) and 10% AB^+ human serum (Trager and Jensen, 1976). Parasite synchronization was obtained with three successive 5% sorbitol treatments (Lambros and Vanderberg, 1979). Synchronized P. falciparum-infected erythrocytes (7-10% parasitemia, trophozoites) were pre-incubated for 1 hour at 37° C. at 4% hematocrit in 2 ml (final volume) basic medium in the absence or the presence of different concentrations of the compound G25. The appropriate radioactive precursor of lipid metabolism was added followed by further 3 h of incubation. Radioactive precursors were used as follows: 30 μM [methyl-^3H]-choline (334 mCi/mmol), 2 μM [^3H]-ethanolamine (2 Ci/mmol) and 10 μM [3-^14C]-serine (57 mCi/mmol). Following incubation with radiolabeled precursors, cells were concentrated by centrifugation at 1,200×g for 5 min at 4° C., washed twice and the cellular lipids were extracted by a mixture of chloroform/methanol (Folch, et al., 1957) and the organic phase was evaporated under air. […] The silica gel of the lipid spots were scraped directly into scintillation vials containing 3 ml of liquid-scintillation fluid and counted in a Beckman LS 5000 spectrophotometer. The amount of labeled precursors incorporated into cellular lipids (nmol×10^7 cell^−1×h^−1) was computed on the basis of radioactivity incorporated into lipids and the specific activity of the precursors in the incubation medium. […]

C. albicans strain BWP17 = assay: Growth inhibition of C. albicans in vitro; type: cell-based, Candida albicans; conditions: read-out: IC50, C. albicans proliferation
Experimental: G15, E24 and C35 inhibited at higher concentrations (>10 μM).

P. falciparum = conditions: cited from earlier work
[3] = test system: de novo biosynthesis of PtdEtn from ethanolamine; assay: Incorporation of radiolabeled ethanolamine into PtdEtn in P. falciparum-infected erythrocytes; type: cell-based, Plasmodium falciparum; conditions: concentrations up to 100 μM
Experimental: as §2, with “mCi/mmol).” for “mCi/mmol). Following incubation with radiolabeled precursors, cells were concentrated by centrifugation at 1,200×g for 5 min at 4° C., washed twice and the cellular lipids were extracted by a mixture of chloroform/methanol (Folch, et al., 1957) and the organic phase was evaporated under air.”

S. cerevisiae = assay: Liquid growth inhibition assay of S. cerevisiae (OD600); type: cell-based, Saccharomyces cerevisiae
Experimental: as §1
Twenty-one analogs including first, second and third generation (E2a, E6, E9, E13, E24, F4, G2, G4, G5, G14, GI5, G25, H5, L1, L4, M34, M53, MS1, T3 and T4) compounds (provided by Dr. Henri Vial, City, Country) were tested (FIG. 4). The choice of the compounds was such that they represent all possible structural features introduced during the optimization process for enhancing antimalarial activity as determined using the combinatorial chemistry techniques.
The antimalarial drug G25 inhibits the growth of Saccharomyces cerevisiae. […] Growth inhibition was assessed by measuring the OD600 and comparing it to that of the wild-type strain grown under the same conditions in the absence of the compound. […] This IC50 value is in the range of the predicted intracellular concentration of G25 in P. falciparum due to the accumulative properties inside the infected erythrocytes.

C[N+]1(CCCCCCCCCCCCCCCC[N+]2(C)CCCC2)CCCC1.[Br-].[Br-] [G25, 1,16-hexadecamethylenebis[N-methylpyrrolidinium]dibromide]
effect of loss of Psd2 on sensitivity [1]: no effect
resistance conferred by loss of Cki1, Cpt1, Pct1 and Hnm1 (CDP-choline pathway) [1]: substantial resistance
resistance conferred by loss of Pem1, Pem2 or CDP-ethanolamine pathway enzymes [1]: No resistance
resistance of psd1 deletion strain [1]: highly resistant
inhibition of PtdCho biosynthesis ([2]; 1 μM G25): 56%
inhibition of PtdCho biosynthesis ([2]; 10 μM G25): nearly complete inhibition
concentration causing a significant decrease of PtdCho biosynthesis ([2]; trophozoite-infected erythrocytes): higher than 0.1 μM
IC50 (C. albicans strain BWP17): ~5 µM
IC50 (P. falciparum; in vitro, literature, read-out: IC50, P. falciparum): 0.0012 µM
IC90/IC50 ratios (P. falciparum; multidrug resistant laboratory and clinical isolates): less than 3
effect on incorporation of radiolabeled ethanolamine into PtdEtn [3]: no effect
Inhibition of S. cerevisiae growth (in words) (S. cerevisiae; structure-activity comparison, Examples 2-4): inhibited
IC50 (S. cerevisiae; wild-type strain BY4741, 1×10^4 cells/ml, liquid medium, 30° C., 16 h, read-out: IC50, inhibition of yeast growth): 2.5 µM
